Entries after “also recorded” stand apart in the source; their conditions may differ. Read-outs that look alike come from different tables or passages of the source.
Key:
[1] = cited from earlier work
[2] = Phase I pharmacokinetics: conversion of CPT-11 into HECPT; assay type: in vivo, human; conditions: per/mg basis, from mean peak plasma concentrations
[3] = tested on: xenografts of human tumors; conditions: nude mice; cited from earlier work
[4] = cited from earlier work; remark: listed apart in the source
[5] = cited from earlier work; remark: listed apart in the source
[6] = cited from earlier work; remark: listed apart in the source
[7] = mice; cited from earlier work
LD1210 leukemia = conditions: 10-100 mg/kg intraperitoneally; cited from earlier work
[8] = tested on: topoisomerase I in P388 cells; conditions: cited from earlier work
MOLT3 cells = conditions: cited from earlier work
P388 tumor = conditions: intermittent bolus (days 1, 5, and 9), i.p.; cited from earlier work
[9] = similar solutions; cited from earlier work
[10] = Masuda et al, refractory or relapsed small cell lung cancer, 100 mg/m^2 weekly
[11] = Negoro et al, small cell lung cancer, 100 mg/m^2 weekly, 41 pts
[12] = Shimada et al, colon cancer, 100 mg/m^2 /week or 150 mg/m^2 /Q 2 wks
[13] = Takeuchi et al, cervical cancer, 69 pts

Compound: CCc1c2c(nc3ccc(OC(=O)N4CCC(N5CCCCC5)CC4)cc13)-c1cc3c(c(=O)n1C2)COC(=O)[C@]3(O)CC [CPT-11, 7-Ethyl-10-[4-(1-piperidino)-1-piperidino]Carbonyloxy-Camptothecin]
- Fractional amount of lactone species, CpMax based ([1]; single dose I.V., 50 mg/m^2): 0.51
- Fractional amount of lactone species, CpMax based ([1]; single dose I.V., 80 mg/m^2): 0.44
- Fractional amount of lactone species, CpMax based ([1]; single dose I.V., 100 mg/m^2): 0.53
- Fractional amount of lactone species, CpMax based ([1]; single dose I.V., 125 mg/m^2): 0.55
- Fractional amount of lactone species, CpMax based ([1]; single dose I.V., 150 mg/m^2): 0.42
- Fractional amount of lactone species, CpMax based ([1]; single dose I.V., 180 mg/m^2): 0.42
- overall fractional concentration of the lactone species over dose range ([1]; single dose I.V.): fairly constant
- administered CPT-11 converted into HECPT [2]: 1.5% to 9
- dependence of tumor sensitivity on ability to produce HECPT [3]: independent of their ability to produce HECPT
- conversion of CPT-11 to HECPT ([4]; 5-day continuous intravenous infusion): saturable process
- Toxicity (* dose limiting) ([5]; Clavel et al, 90 min QDx3 Q21 days, 115 mg/m^2 /d (33-115), 37 pts): Neutropenia*; also recorded: diarrhea; also recorded: nausea; also recorded: vomiting; also recorded: alopecia
- partial responses (PR) ([5]; Clavel et al, Breast, 37 pts): 1 PR
- partial responses (PR) ([5]; Clavel et al, Mesothelioma, 37 pts): 1 PR
- Toxicity (* dose limiting) ([5]; Culine et al, 90 min Q21 days, 150 mg/m^2 /wk (50-150), 59 pts): Neutropenia*; also recorded: diarrhea*; also recorded: vomiting; also recorded: alopecia; also recorded: fatigue; also recorded: stomatitis
- partial responses (PR) ([5]; Culine et al, cervix, 59 pts): 1 PR
- partial responses (PR) ([5]; Culine et al, esophagus, 59 pts): 1 PR
- partial responses (PR) ([5]; Culine et al, ovarian, 59 pts): 1 PR
- partial responses (PR) ([5]; Culine et al, renal, 59 pts): 1 PR
- Toxicity (* dose limiting) ([5]; Negoro et al, 30 min infusion weekly, 100 mg/m^2 (50-150), 17 pts): Neutropenia* and Diarrhea* and N/V and alopecia and liver
- partial responses (PR) ([5]; Negoro et al, NS CLC, 17 pts): 2 PRs
- responses by tumor type ([5]; Ohe et al, 36 pts): None
- Toxicity (* dose limiting) ([5]; Ohe et al, 120 hr CI Q3 wks, 40 mg/m^2 /d (5-40), 36 pts): Diarrhea*; also recorded: nausea; also recorded: vomiting; also recorded: thrombocytopenia; also recorded: anemia; also recorded: liver
- major reported, dose-limiting toxicities ([5]; Phase I and Phase II trials): Neutropenia and diarrhea
- partial responses (PR) ([5]; Rothenberg et al, Colon Ca, 32 pts): 2 PRs
- Toxicity (* dose limiting) ([5]; Rothenberg et al, QWx4 Q42 days, 180 mg/m^2 /wk (50-180), 32 pts): Diarrhea*; also recorded: Neutropenia; also recorded: nausea; also recorded: vomiting; also recorded: alopecia
- Toxicity (* dose limiting) ([5]; Rowinsky et al, 90 min infusion Q21 day, 240 mg/m^2 (100-345), 32 pts): Neutropenia* and vomiting and diarrhea and abd. and flushing
- partial responses (PR) ([5]; Rowinsky et al, Cervix Ca, 32 pts): 1 PR
- partial responses (PR) ([5]; Rowinsky et al, Colon Cancer, 32 pts): 1 PR
- partial responses ([6]; Fukuoka et al, untreated non small cell lung cancer, 100 mg/m^2): 23/72
- Response Rate [6, 10]: 47%
- partial responses [6, 10]: 7/15
- Response Rate [6, 11]: 33.3%
- complete responses [6, 11]: 2 CRs
- partial responses [6, 11]: 7 PRs
- N/V ([6]; Negoro et al, small cell lung cancer): 61.5%
- Gastrointestinal toxicity ([6]; Ohno et al, 62 pts): 76%
- Reported Toxicities ([6]; Ohno et al, 62 pts): Thrombocytopenia
- Response Rate ([6]; Ohno et al, leukemia/lymphoma, 20 mg/m^2 bid x7): 25 % RR
- partial response rate ([6]; Ohno et al, leukemia/lymphoma, 40 mg/m^2 Q0x5): 34 % PR
- Response ([6]; Ohno et al, leukemia/lymphoma, 200 mg Q3): No resp.
- N/V ([6]; Shimada et al, 17 pts): 35%
- Response Rate [6, 12]: 46%
- partial responses [6, 12]: 6/17
- Response Rate (RR) [6, 13]: 23.6%
- complete responses [6, 13]: SCR
- partial responses [6, 13]: 8 PR
- N/V ([6]; Takeuchi et al, cervical cancer): 51%
- Alopecia ([6]; in vivo): 38.1%
- Diarrhea ([6]; in vivo): 39.1%
- alopecia ([6]; in vivo): 40.0%
- pneumonitis ([6]; in vivo): 12.5
- plasma concentration of HECPT after CPT-11 compared to after HECPT [7]: maintained longer after CPT-11 administration than after treatment with HECPT

Compound: CCc1c2c(nc3ccccc13)-c1cc3c(c(=O)n1C2)COC(=O)[C@]3(O)CC [ECPT, 7-ethyl camptothecin]
- T/C (treated/control) ratios (LD1210 leukemia): inferior to that of CPT-11 administration under the same conditions

Compound: CCc1c2c(nc3ccc(O)cc13)-c1cc3c(c(=O)n1C2)COC(=O)[C@]3(O)CC [HECPT, 10-hydroxy 7-ethyl camptothecin]
- greater inhibitory activity than CPT-11 against topoisomerase I [8]: 3600 fold
- overall fractional concentration of the lactone species over dose range ([1]; in vivo, iv): fairly constant
- correlation of HECPT pharmacokinetics with dose or of CPT-11 pharmacokinetics with toxicity ([4]; human subjects): lack of correlation
- more potent than CPT-11 in generating single-strand DNA breaks (MOLT3 cells): approximately 1000 fold
- anti-tumor activity compared to CPT-11 (P388 tumor): little anti-tumor activity compared to CPT-11
- T/C (treated/control) ratios (LD1210 leukemia): inferior to that of CPT-11 administration under the same conditions

Compound: COc1cc([C@@H]2c3cc4c(cc3[C@@H](O[C@@H]3O[C@@H]5CO[C@@H](C)O[C@H]5[C@H](O)[C@H]3O)[C@H]3COC(=O)[C@H]23)OCO4)cc(OC)c1O [etoposide]
- bioavailability following oral administration relative to intravenous [9]: substantially equivalent

From patent publication US5597829A, “Lactone stable formulation of camptothecin and methods for uses thereof” (priority 1994, dated 1997)
